Measured values: patent US20060014834A1, “Retinoid solutions and formulations made therefrom” (priority 2004, published 2006)

Tests used:
Format in all cases: physicochemical
[1] = Elevated temperature stability of the actives in the oil in water emulsion of Example 10; conditions: Example 10 emulsion
Procedure: The elevated temperature stability of the actives in the oil in water emulsion of Example 10 was determined using techniques within the purview of those skilled in the art.

[2] = Elevated temperature stability of the actives in the liquid to powder suspension system of Example 13; conditions: Example 13 suspension
Procedure: The elevated temperature stability of the actives in the liquid to powder suspension system of Example 13 was determined using techniques known to those skilled in the art.

[3] = Solubility of tretinoin in ethanol, ester cosolvent or both
Procedure: The method of preparing the solution is not critical. Typically, the cosolvents are combined and the retinoid is added with stirring at room temperature until completely solubilized.
It has been experimentally determined that tretinoin is not soluble in ethanol in the ratios set forth in Examples A-D:
Isopropyl myristate (“IPM”) can be replaced with alkyl benzoate, isopropyl palmitate (“IPP”) or diisopropyl adipate to achieve the same results.
In Examples E-J where alcohol is not present, the retinoids are not soluble in the esters alone. This further confirms the present finding that retinoids can be solubilized in a small amount of alcohol by using specific cosolvents.
To effectively utilize the chamber in a chamber delivery system, one must balance the concentration of the actives in both chambers. This is necessary to achieve the final, active concentration, which is efficacious as well as compliant with the FDA. The present disclosure teaches how to prepare higher concentrations of tretinoin in solution for the small chamber by using lower concentrations of alcohol by means of cosolvents such a alkyl benzoate, isopropyl myristate, and isopropyl palmitate.

[4] = 25° C., 2 months, unit not given
[5] = 25° C., 3 months, unit not given
[6] = 30° C., 1 month, unit not given
[7] = 30° C., 2 months, unit not given
[8] = 30° C., 3 months, unit not given

active content, 25° C., 2 months [1, 4]: 0.0497 | active content, 25° C., 3 months [1, 5]: 0.0497 | active content, 30° C., 1 month [1, 6]: 0.0490 | active content, 30° C., 2 months [1, 7]: 0.0490 | active content, 30° C., 3 months [1, 8]: 0.0490 | active content, Initial ([1]; initial): 0.0497% | active content, 25° C., 1 month ([2]; 25° C., 1 month, unit not given): 0.0508 | active content, 25° C., 2 months [2, 4]: 0.0499 | active content, 25° C., 3 months [2, 5]: 0.0497 | active content, 30° C., 1 month [2, 6]: 0.051 | active content, 30° C., 2 months [2, 7]: 0.0498 | active content, 30° C., 3 months [2, 8]: 0.0488 | active content, Initial ([2]; initial): 0.0517% | dissolution in alcohol using ester cosolvent ([3]; 1 gram of tretinoin in 3 grams of alcohol (33.3 percent solution) with alkyl benzoate, isopropyl myristate, isopropyl palmitate or other esters): completely dissolved | solubility in ethanol ([3]; ethanol alone, tretinoin:ethanol ratios of Examples A-D): not soluble
SMILES: CC1=C(/C=C/C(C)=C/C=C/C(C)=C/C(=O)O)C(C)(C)CCC1 [Tretinoin]
solubility in ethanol plus cosolvent (clear solution) ([3]; same tretinoin:ethanol ratios, cosolvent IPM added (Examples 1-4)): completely dissolve into a clear solution
